The values below come from paper PMC8841740, “Fluorescent Ligand-Based Discovery of Small-Molecule Sulfonamide Agonists for GPR120” (Frontiers in Chemistry, 2022).

For orientation: melting point means the temperature of the solid-liquid transition.

Take `Cc1cc(C)c(NS(=O)(=O)c2ccc(-c3ccccc3)cc2)c(C)c1` [Compound B1, N-Mesityl-[1,1′-biphenyl]-4-sulfonamide]: the melting point was in the range of 165 to 166 °C. The figure for `Cc1cc(C)c(NS(=O)(=O)c2ccc(-c3ccc(F)cc3)cc2)c(C)c1` [Compound B2, 4′-Fluoro-N-Mesityl-[1,1′-Biphenyl]-4-Sulfonamide] is 214 to 215 °C; for `Cc1cc(C)c(NS(=O)(=O)c2ccc(-c3ccc(Br)cc3)cc2)c(C)c1` [Compound B3, 4′-Bromo-N-Mesityl-[1,1′-Biphenyl]-4-Sulfonamide] it is 176 to 177 °C. Under `Cc1ccc(-c2ccc(S(=O)(=O)Nc3c(C)cc(C)cc3C)cc2)cc1` [Compound B4, N-Mesityl-4′-Methyl-[1,1′-Biphenyl]-4-Sulfonamide] stands 195 to 196 °C; under `Cc1cc(C)c(NS(=O)(=O)c2ccc(-c3ccc(Cl)cc3)cc2)c(C)c1` [Compound B8, 4′-Chloro-N-Mesityl-[1,1′-Biphenyl]-4-Sulfonamide], 214 to 215 °C; under `Cc1cc(C)cc(COc2ccc(S(=O)(=O)Nc3c(C)cc(C)cc3C)cc2)c1` [Compound C1, 4-((3,5-Dimethylbenzyl)oxy)-N-mesitylbenzenesulfonamide], 152 to 153 °C. The figure for `Cc1cc(C)c(NS(=O)(=O)c2ccc(OCc3c(F)cccc3C(F)(F)F)cc2)c(C)c1` [Compound C2, 4-((2-Fluoro-6-(trifluoromethyl)benzyl)oxy)-N-mesitylbenzenesulfonamide] is 154 to 155 °C.

Turning to `Cc1cc(C)c(NS(=O)(=O)c2ccc(OCc3ccc(Br)cc3)cc2)c(C)c1` [Compound C3, 4-((4-Bromobenzyl)oxy)-N-mesitylbenzenesulfonamide], the melting point was in the range of 161 to 162 °C. Under `COc1ccc(NS(=O)(=O)c2ccc(-c3ccc(OC(F)(F)F)cc3)cc2)cc1OC` [Compound D1, N-(3,4-Dimethoxyphenyl)-4′-(Trifluoromethoxy)-[1,1′-Biphenyl]-4-Sulfonamide] stands 145 to 146 °C; under `O=S(=O)(Nc1ccc(OC(F)(F)F)cc1)c1ccc(-c2ccc(OC(F)(F)F)cc2)cc1` [Compound D2, 4′-(Trifluoromethoxy)-N-(4-(Trifluoromethoxy)phenyl)-[1,1′-Biphenyl]-4-Sulfonamide], 139 to 140 °C; under `COc1cc(NS(=O)(=O)c2ccc(-c3ccc(OC(F)(F)F)cc3)cc2)cc(OC)c1OC` [Compound D3, 4′-(Trifluoromethoxy)-N-(3,4,5-Trimethoxyphenyl)-[1,1′-Biphenyl]-4-Sulfonamide], 136 to 137 °C. The figure for `O=S(=O)(Nc1ccc(Oc2ccccc2)cc1)c1ccc(-c2ccc(OC(F)(F)F)cc2)cc1` [Compound D4, N-(4-Phenoxyphenyl)-4′-(Trifluoromethoxy)-[1,1′-Biphenyl]-4-Sulfonamide] is 144 to 145 °C.
